# Legend:
# [1] = tested on: Rhipicephalus sanguineus (nymphs); assay: Arena test in vitro against Rhipicephalus sanguineus (nymphs); details: even up to a dilution of 3.2 μg/cm^2
# Method: (§1) This method is carried out in titre plates having 6 wells with a cross-section of 5 cm each, using a computer-supported video system. Each well of the titre plate is lined with a circular filter paper or another suitable carrier material. The substance of formula (I) to be tested is dissolved in methanol, acetonitrile or another suitable solvent, with ultrasound treatment and heating being employed for poorly-soluble substances. In an amount of 1 to 100 μg/cm^2, the dissolved test substance is placed in the centre of the filter paper on a quadrant or circular area of ca. 2.4 cm^2 radius. 4 of the 6 wells are filled with different test substances or with the same test substance in different dilutions (e.g. 1, 3.2, 5, 10 and 20 μg/cm^2) The 5th well is treated with DEET (N,N-diethyl-m-toluamide) as standard substance. The 6th well is filled with the pure solvent and serves as a control. […] In this way, neutral and repellent substances are determined. At the same time, the duration of activity of the test substance is determined and compared with that of the standard. […] This frequency is evaluated statistically and thus quantitatively by the Willcoxon method in a comparison with the control and with the standard. […]
# [2] = tested on: Amblyomma hebraeum or variegatum (nymphs); assay: Arena test in vitro against Amblyomma hebraeum or variegatum (nymphs); details: even up to a dilution of 3.2 μg/cm^2
# Method: as §1
# [3] = tested on: ticks of the genus Ixodes ricinus; assay: In-vivo comparison on dogs of anti-tick action following spray application; details: Beagle dogs; for anti-tick activity in the course of 3 successive days (in words): single spray application
# Source text: In-vivo comparison on dogs in respect of the anti-tick action of 2-propyl-pentanoic acid-bis-(2-methoxyethyl)-amide according to the present invention with DEET (in the form of PARAPIC DOG® (a tick repellent containing DEET)) following spray application.
# The following formulations of active ingredient are used in the test which follows: […]
# Prior art composition of the Parapic anti-tick spray: • active substance: 15% N,N-Diethyl-3-methylbenzamide (DEET); 15% • ethylbutylacetylaminopropionate (EBMP), isopropanol, methacrylic acid copolymer, carbamide, fragrance (perfume).
# Inventive composition of the 2-propyl-pentanoic acid-bis-(2-methoxyethyl )-amide spray: active substance: 2-propyl-pentanoic acid-bis-(2-methoxyethyl )-amide 4.5%; Pluronic F6® 2.0%; water 10.0%, isopropanol ad 100.0%.
# The aim of the test is to make a comparison, under natural conditions, of the commercially available anti-vermin product Parapic Dog® with a typical representative of a compound of formula (I), namely 2-propyl-pentanoic acid-bis-(2-methoxyethyl)-amide. According to the packaging information one should reach with Parapic Dog® an 80% anti-tick protection over a period of 48 hours. The active ingredient of Parapic Dog® is DEET, which is the chemical substance N,N-Diethyl-3-methylbenzamide. Products based on the active ingredient DEET, such as Parapic Dog® are widely used against ticks on dogs and cats, and also on humans. Actually, the majority of the currently used anti-tick products is based on DEET, and the mostly used product in dogs is said Parapic Dog®.
# Test Protocol: 12 Beagle dogs are divided into groups of 4. To distinguish them, each dog is given a numbered label. Group 1 is treated with a 4.5% 2-propyl-pentanoic acid-bis-(2-methoxy-ethyl)-amide spray (3645mg a.i./m^2). Group 2 is treated with Parapic Dog®-Spray ([…] DEET/3645 mg a.i./m^2). Group 3 remains untreated and serves as a control.
# All twelve dogs are taken on 3 successive days to a wooded plot infected with ticks of the genus Ixodes ricinus and are left to run around there. They are free to move around there for 2 hours. An evaluation is made directly after returning from the wood. The two-hour walks are repeated on the next 2 days without the dogs being treated again, and the evaluation is again made directly after returning from the wood. This is effected by carefully searching the fur and the skin of each animal for ticks adhered thereto. The ticks are counted and compared with the number of ticks in the control group.
# [4] = tested on: Boophilus microplus Biarra (larvae); assay: Arena test in vitro against Boophilus microplus Biarra (larvae); details: even up to a dilution of 3.2 μg/cm^2
# Method: as §1
# [5] = tested on: parasite to be tested, e.g. ticks; assay: Arena test method for testing vermin-repellent substances; details: 1 to 100 μg/cm^2 on filter paper; video evaluation versus control and DEET standard
# Method: Arena Test Method for Testing Vermin-repellent Substances
# This method is carried out in titre plates having 6 wells with a cross-section of 5 cm each, using a computer-supported video system. Each well of the titre plate is lined with a circular filter paper or another suitable carrier material. The substance of formula (I) to be tested is dissolved in methanol, acetonitrile or another suitable solvent, with ultrasound treatment and heating being employed for poorly-soluble substances. In an amount of 1 to 100 μg/cm^2, the dissolved test substance is placed in the centre of the filter paper on a quadrant or circular area of ca. 2.4 cm^2 radius. 4 of the 6 wells are filled with different test substances or with the same test substance in different dilutions (e.g. 1, 3.2, 5, 10 and 20 μg/cm^2) The 5th well is treated with DEET (N,N-diethyl-m-toluamide) as standard substance. The 6th well is filled with the pure solvent and serves as a control. […]
# At intervals of 5 seconds, the video camera takes individual pictures of all 6 wells. […] In this way, neutral and repellent substances are determined. At the same time, the duration of activity of the test substance is determined and compared with that of the standard. […] This frequency is evaluated statistically and thus quantitatively by the Willcoxon method in a comparison with the control and with the standard. […]
# vermin = details: volatilizes rather rapidly; cited from earlier work
Compound,long-term action against Rhipicephalus sanguineus nymphs [1],long-term action against Amblyomma nymphs [2],"anti-tick action after 1 day ([3]; single spray application 3645 mg a.i./m^2, 2 hour walk in tick-infested wood, versus untreated control, after 1 day)","anti-tick action after 2 days ([3]; single spray application 3645 mg a.i./m^2, 2 hour walk in tick-infested wood, versus untreated control, after 2 days)","anti-tick action after 3 days ([3]; single spray application 3645 mg a.i./m^2, 2 hour walk in tick-infested wood, versus untreated control, after 3 days)",anti-tick activity in the course of 3 successive days (in words) [3],long-term action against Boophilus larvae [4],repellent activity in arena test [5],time after which reapplication is needed (vermin)
"CCCC(CCC)C(=O)N(CCOC)CCOC [Compound no. 1.31, 2-propyl-pentanoic acid-bis-(2-methoxyethyl)-amide]",especially marked long-term action,especially marked long-term action,100%,98%,79%,very good results,especially marked long-term action,particularly active,
"CCN(CC)C(=O)c1cccc(C)c1 [DEET, N,N-diethyl-m-toluamide, reference compound]",,,,,,drops abruptly after 2 days,,,ca. 2 hours

# Source: patent US7749526B2, “Vermin-repellant compositions and compounds” (Novartis AG, priority 2002, dated 2010)
